Results as given in US20040171073A1, “Compounds for modulation of cholesterol transport” (Massachusetts Institute of Technology, priority 2002, published 2004).

Molecular target: T1, murine SR-BI (Mus musculus, UniProt Q61009)
T1 construct: expressed in transfected cells; host or cells: ldlA-7 (LDL receptor deficient Chinese hamster ovary cells)
T1 sequence (Q61009 1-509): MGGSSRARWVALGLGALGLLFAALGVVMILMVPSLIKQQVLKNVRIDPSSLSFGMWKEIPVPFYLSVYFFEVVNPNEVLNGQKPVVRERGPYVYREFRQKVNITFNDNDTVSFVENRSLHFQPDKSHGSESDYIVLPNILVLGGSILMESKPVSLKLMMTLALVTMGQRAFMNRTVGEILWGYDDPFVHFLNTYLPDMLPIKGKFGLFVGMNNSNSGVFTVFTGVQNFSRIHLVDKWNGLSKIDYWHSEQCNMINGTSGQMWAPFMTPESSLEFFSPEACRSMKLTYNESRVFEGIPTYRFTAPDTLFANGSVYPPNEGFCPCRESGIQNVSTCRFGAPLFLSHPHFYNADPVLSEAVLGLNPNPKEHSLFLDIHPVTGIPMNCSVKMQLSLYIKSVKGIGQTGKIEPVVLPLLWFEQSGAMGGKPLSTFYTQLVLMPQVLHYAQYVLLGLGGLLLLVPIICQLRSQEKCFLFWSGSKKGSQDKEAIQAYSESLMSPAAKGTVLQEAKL
Assay: Uptake of DiI from DiI-HDL by ldlA[mSR-BI] cells (high throughput screen and concentration dependence)
Assay type: cell-based

[1] = DiI uptake from DiI-HDL, compounds at nominal 10 micromolar, ldlA[mSR-BI] cells

Row | ENDOHDL Test 1 | ENDOHDL Test 2 | ENDOHDL Test 1 [1] | ENDOHDL Test 2 [1] | SMILES
1 | 0.67 | 0.64 |  |  | CO/C(=N\C(NC(=S)Nc1ccc(Br)cc1)C(Cl)(Cl)Cl)c1ccc(C)cc1 (stereo not shown) [MIT 9952-198]
2 | 1.24 | 1.21 |  |  | COc1ccc2nc(C(=O)[O-])sc2c1.[Na+] [MIT 9952-14]
3 | 0.6 | 0.53 |  |  | O=C(NC(NC(=S)Nc1ccc(Cl)cc1Cl)C(Cl)(Cl)Cl)c1ccco1 (stereo not shown) [MIT 9952-106]
4 | 0.51 | 0.63 |  |  | COc1cccc(NC(=O)c2sc(-c3ccccc3)nc2-c2ccc([N+](=O)[O-])cc2)c1 [MIT 9952-118]
5 | 0.33 | 0.46 |  |  | CCOC(=O)c1c(/N=C/c2ccccc2[N+](=O)[O-])sc2c1CCCC2 [MIT 9952-187]
6 | 1.26 | 1.58 |  |  | CC(C)C(=O)NC(NC(=S)Nc1cccc(C(=O)Cl)c1)C(Cl)(Cl)Cl (stereo not shown) [MIT 9952-117]
7 | 0.4 | 0.38 |  |  | CCN(CC)CC(=O)Nc1ccc2c(c1)N(C(=O)c1ccccc1)c1ccccc1CC2.Cl [MIT 9952-178]
8 | 0.56 | 0.56 |  |  | O=C(Nc1ccc(C2Nc3ccc(SC(=O)c4ccc(Cl)cc4)c(Cl)c3S2)cc1)c1ccc(Cl)cc1 (stereo not shown) [MIT 9952-35]
9 | 0.6 | 0.54 |  |  | C/C(CS(=O)(=O)c1ccc(C)cc1)=N/NC(N)=S [MIT 9952-181]
10 | 0.62 | 0.66 |  |  | Brc1ccc(-c2cc(-c3ccccc3)nc(N3CCOCC3)n2)cc1 [MIT 9952-261]
11 | 1.27 | 1.4 |  |  | Cc1nc(Cl)c(C(c2cc([N+](=O)[O-])ccc2Cl)c2c(Cl)nc(C)nc2Cl)c(Cl)n1 [MIT 9952-22]
12 | 1.28 | 1.34 |  |  | O=C(Oc1ccc2c(=O)c(Oc3ccccc3)coc2c1)C1CCCN1C(=O)OCc1ccccc1 (stereo not shown) [MIT 9952-145]
13 | 0.42 | 0.39 |  |  | CCN(CC)CC(=O)Nc1ccc2c(c1)Nc1ccccc1CC2.Cl [MIT 9952-158]
14 | 0.52 | 0.57 |  |  | C=CCN(CC=C)C(=O)Nc1ccccc1 [MIT 9952-251]
15 | 0.6 | 0.61 |  |  | C/C(=N\NC(=O)c1ccc(-c2ccccc2)cc1)c1cccc(N)c1 [MIT 9952-164]
16 |  |  | 0.59 | 0.34 | O=C(N/N=C/c1cc2c(cc1Br)OCO2)c1cccc(Cl)c1 [MIT 9952-281]
17 | 1.22 | 1.35 |  |  | O=C(O/N=C/c1ccc([N+](=O)[O-])o1)c1ccccc1 [MIT 9952-195]
18 | 0.58 | 0.39 |  |  | CN(N)c1nc(-c2ccccc2)cc(-c2ccccc2)n1 [MIT 9952-252]
19 | 1.32 | 1.18 |  |  | O=C(CC1=CCCCC1)Nc1cc([N+](=O)[O-])ccc1O [MIT 9952-167]
20 | 0.61 | 0.6 |  |  | COc1ccc([N+](=O)[O-])cc1NC(=O)c1ccccc1 [MIT 9952-238]

Row | ENDOHDL Test 1 | ENDOHDL Test 2 | ENDOHDL Test 1 [1] | ENDOHDL Test 2 [1] | SMILES
21 |  |  | 0.53 | 0.48 | Cc1cc(C)c(CO)c(C)c1/C=N/Nc1ccc([N+](=O)[O-])cc1 [MIT 9952-283]
22 | 1.34 | 1.2 |  |  | Cc1cccc(N2C(=O)CN(C3CCOCC3)C2=O)c1 [MIT 9952-2]
23 |  |  | 0.61 | 0.56 | C=CC/C=C/c1c(NC(=O)c2ccccc2)sc2c1CCCC2 [MIT 9952-294]
24 | 0.73 | 0.77 |  |  | COc1ccc(/C=C2/S/C(=N/c3ccccc3)NC2=O)c(OC)c1 [MIT 9952-88]
25 |  |  | 1.29 | 1.24 | O=C(/C=C/C=C(Cl)Cl)c1ccc2c(c1)OCO2 [MIT 9952-298]
26 | 1.19 | 1.75 |  |  | CC1CC2(C)CC(C(=O)O2)C1C(=O)OCCOc1ccccc1 (stereo not shown) [MIT 9952-109]
27 | 0.54 | 0.57 |  |  | CCOC(=O)c1c(NC(=O)c2ccc(N)c([N+](=O)[O-])c2)sc2c1CCCC2 [MIT 9952-121]
28 | 0.55 | 0.53 |  |  | NC(=O)N/N=C/c1ccc(-c2ccc([N+](=O)[O-])cc2)o1 [MIT 9952-126]
29 | 0.61 | 0.58 |  |  | O=C(Nc1cc2c(cc1C(=O)c1ccccc1)OCCO2)c1ccc(Br)cc1 [MIT 9952-188]
30 |  |  | 0.79 | 0.86 | Cc1cc(O)nc2cc3oc4ccccc4c3cc12 [MIT 9952-322]
31 |  |  | 0.7 | 0.68 | C/C(=N\NC(N)=S)c1ccc[nH]1 [MIT 9952-309]
32 |  |  | 0.55 | 0.56 | O=C(Nc1ccc(Oc2ccc(Cl)c3cccnc23)c(Cl)c1)c1ccc([N+](=O)[O-])cc1 [MIT 9952-324]
33 | 0.52 | 0.46 |  |  | O=C(N/N=C\c1cccn1-c1ccc([N+](=O)[O-])cc1)c1ccccc1 [MIT 9952-199]
34 | 1.27 | 1.4 |  |  | Cc1nc(O)c(C(c2cc([N+](=O)[O-])ccc2O)c2c(O)nc(C)nc2O)c(O)n1 [MIT 9952-82]
35 | 0.63 | 0.77 |  |  | CCN(CC)C(=O)N1CCN(c2ccc(Nc3ccnc4cc5ccccc5cc34)cc2)CC1 [MIT 9952-141]
36 | 0.58 | 0.58 |  |  | NSCc1nc(-c2ccc(Cl)cc2)no1 [MIT 9952-64]
37 |  |  | 0.59 | 0.56 | CCn1c2ccccc2c2cc(/C=N/NC(N)=S)ccc21 [MIT 9952-330]
38 | 0.73 | 0.68 |  |  | Cc1cc(C)c(NC(=O)C2CCCN2N)c(C)c1 (stereo not shown) [MIT 9952-276]
39 | 0.58 | 0.71 |  |  | CN1CCc2c(c3ccccc3n2-c2ccccc2)C1.Cl [MIT 9952-197]

Row | SMILES | ENDOHDL Test 1 | ENDOHDL Test 2 | ENDOHDL Test 1 [1] | ENDOHDL Test 2 [1]
40 | COC(=O)Nc1cc([N+](=O)[O-])cc([N+](=O)[O-])c1Br [MIT 9952-79] | 0.61 | 0.63 |  | 
41 | O=C(Nc1ccc(-c2nc3cc(NC(=O)c4ccccc4[N+](=O)[O-])ccc3o2)cc1)c1ccccc1[N+](=O)[O-] [MIT 9952-234] | 0.58 | 0.54 |  | 
42 | COc1ccc(NC(=O)c2cc([N+](=O)[O-])c(C)c([N+](=O)[O-])c2)cc1Cl [MIT 9952-226] | 0.5 | 0.56 |  | 
43 | O=C(Nc1ccc(-c2nc3cc(NC(=O)c4ccccc4[N+](=O)[O-])ccc3o2)cc1)c1ccccc1[N+](=O)[O-] [MIT 9952-339] |  |  | 0.58 | 0.54
44 | Cc1c([N+](=O)[O-])cc(C(=O)Nc2cccc(-c3nc4ccccc4o3)c2)cc1[N+](=O)[O-] [MIT 9952-210] | 0.59 | 0.56 |  | 
45 | Br.CCOC(=O)c1c(CSC(=N)N)n(C)c2cc(Br)c(OC(C)=O)cc12 [MIT 9952-146] | 0.62 | 0.71 |  | 
46 | CC(C)=C/C(=N\Nc1ccc([N+](=O)[O-])cc1[N+](=O)[O-])C1CC=CCC1 (stereo not shown) [MIT 9952-288] |  |  | 0.59 | 0.52
47 | CCc1c2cccn2cc(C)[n+]1C.[I-] [MIT 9952-177] | 0.68 | 0.49 |  | 
